The record followed here is PubChem BioAssay (NCI).

Each structure is given as a SMILES string.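 A five-concentration, 48-hour dose response in 96-well plates underlies each endpoint, interpolated linearly between surrounding concentrations. TGI is the concentration that stops growth completely.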

Holding throughout (experiment): NCI tumour cell line growth inhibition, 48 h
Experiment [1] deals with SR leukemia.
Experiment [2] concerns OVCAR-5 ovarian.
In experiment [3] the test system is NCI/ADR-RES ovarian.
For experiment [4], the system named is SW-620 colon.
In experiment [5] the test system is OVCAR-8 ovarian.
The subject of experiment [6] is HS 578T breast.
Experiment [7] relates to HL-60(TB) leukemia.
Experiment [8] concerns BT-549 breast.
In experiment [9] the test system is HT29 colon.
The subject of experiment [10] is M14 melanoma.
For experiment [11], the system named is HCT-116 colon.
Experiment [12] concerns MDA-MB-231 breast.
For experiment [13], the system named is CAKI-1 renal.
In experiment [14] the test system is PC-3 prostate.
For experiment [15], the system named is RPMI-8226 leukemia.
In experiment [16] the test system is ACHN renal.
The subject of experiment [17] is MALME-3M melanoma.
In experiment [18] the test system is MDA-MB-435.
Experiment [19] relates to K-562 leukemia.

As for `CN(C)/C=C(\C(=O)c1ccccc1)n1nc(-c2ccccc2)cc1-c1ccccc1`, the TGI in [1], in experiment [2], in [3], in [4], in [5] and in [6] was over 10 µM each time. Also, the TGI in experiment [7], in experiment [8], in experiment [9], in experiment [10], in experiment [11] and in experiment [12] was over 10 µM throughout. Further, the TGI in experiment [13], in experiment [14], in experiment [15], in [16], in experiment [17] and in experiment [18] was over 10 µM in each case.
On to `COc1ccc(C2CC(c3ccc4ccccc4c3O)=NN2C(C)=O)cc1OC` (stereo unspecified), for which the TGI in experiment [1], in experiment [2], in experiment [3], in experiment [4], in experiment [5] and in experiment [19] was over 100 µM each time. Further, the TGI in experiment [6], in [8], in experiment [9], in [10], in [11] and in [12] was over 100 µM each time. For the same compound, the TGI in experiment [13], in experiment [14], in [15], in experiment [16], in [17] and in [18] was over 100 µM each time.
In the case of `CN(C)CCCNc1ccnc2cc([N+](=O)[O-])ccc12`, the TGI is over 100 µM in [1]; 42.4 µM in experiment [2]; 50 µM in experiment [3]; 30 µM in experiment [4]; 46.1 µM in experiment [5]; over 100 µM in experiment [19]. Moreover, the TGI was determined as 40.4 µM in [6]; 33.4 µM in experiment [8]; 6.99 µM in [9]; 24.4 µM in experiment [10]; 23.7 µM in experiment [11]; 28.6 µM in experiment [12]. For the same compound, the TGI was 67.6 µM in experiment [13]; 42.4 µM in [14]; over 100 µM in experiment [15]; 61.5 µM in experiment [16]; 11.4 µM in experiment [17]; 31.3 µM in experiment [18].
Turning to `COc1ccc(OC)c(-c2nc3ccccc3c(=O)[nH]2)c1`, the TGI in experiment [1], in experiment [2], in [3], in [4], in experiment [5] and in [19] was over 100 µM each time. The TGI in [6], in experiment [8], in experiment [9], in [10], in experiment [11] and in [12] was over 100 µM throughout. The TGI in experiment [13], in experiment [14], in experiment [15], in experiment [16], in experiment [17] and in experiment [18] was over 100 µM throughout.
Regarding `CCN(CC)CCn1c2cc3c(cc2c(=O)c2cccnc21)OCO3`, the TGI in experiment [1], in [2], in [3], in experiment [4], in [5] and in [6] was over 10 µM in each case. For the same compound, the TGI in experiment [7], in experiment [8], in experiment [9], in experiment [10], in experiment [11] and in experiment [12] was over 10 µM throughout. Besides, the TGI in experiment [13], in experiment [14], in [15], in experiment [16], in experiment [17] and in experiment [18] was over 10 µM in each case.
Take `CC(=O)c1nc2ccccc2n1CC(=O)c1ccc(Cl)cc1`: the TGI in [1] is over 100 µM; in experiment [3], 22.2 µM; in experiment [4], 44 µM; in experiment [5] it was 85.8 µM; in [19], over 100 µM; in experiment [6], over 100 µM. Also, the TGI in experiment [7] is over 100 µM; in experiment [8], over 100 µM; in experiment [9] it was 35.4 µM; in experiment [10], over 100 µM; in experiment [11], over 100 µM; in [12] it was over 100 µM. Also, the TGI is over 100 µM in [13]; 60.1 µM in experiment [14]; over 100 µM in experiment [15]; 22.6 µM in experiment [17]; over 100 µM in [18].
As to `CCCNC(C#N)c1ccc(OCCCCCCCCCCOc2ccc(C(C#N)NCCC)cc2)cc1` (stereo unspecified), the TGI in [1] is 61.3 µM; in experiment [2] it was over 100 µM; in experiment [3], over 100 µM; in [4], over 100 µM; in [5] it was over 100 µM; in [19], 76.3 µM. Also, the TGI in experiment [6] was over 100 µM; in experiment [7], 43 µM; in [8] it was over 100 µM; in experiment [9] it was over 100 µM; in experiment [10], over 100 µM; in experiment [11], over 100 µM. The TGI in experiment [12], in experiment [14], in experiment [16], in experiment [17] and in experiment [18] was over 100 µM each time.
Turning to `Nc1ccc2cc3[nH]c4cc(N)ccc4c3nc2c1`, the TGI in experiment [1] is 0.66 µM; in experiment [2], 1.83 µM; in experiment [3], 2.34 µM; in experiment [4] it was 0.845 µM; in [5], 1.69 µM; in experiment [19], over 22.6 µM. Moreover, the TGI in experiment [6] is 2.57 µM; in [8], 3.15 µM; in experiment [9] it was 1.48 µM; in experiment [10] it was 1.36 µM; in [11], 0.456 µM; in experiment [12], 2.09 µM. Moreover, the TGI in [13] is 0.636 µM; in experiment [14], 1.49 µM; in experiment [15], over 100 µM; in [16], 0.257 µM; in [18], 1.23 µM.
